Laboratory results reported in paper PMC6832932, “Design and Selection of Novel C1s Inhibitors by In Silico and In Vitro Approaches” (Molecules, 2019).
Read-outs that look alike come from different tables or passages of the source.

Key:
C1s [1] = molecular target: T1, C1s (Homo sapiens, UniProt P09871); details: cited from earlier work
T1 construct: Recombinant C1s and C1r fragments (CCP1-CCP2-SP, the γB catalytic region); made in house
T1 sequence (P09871 438-688 limits assumed): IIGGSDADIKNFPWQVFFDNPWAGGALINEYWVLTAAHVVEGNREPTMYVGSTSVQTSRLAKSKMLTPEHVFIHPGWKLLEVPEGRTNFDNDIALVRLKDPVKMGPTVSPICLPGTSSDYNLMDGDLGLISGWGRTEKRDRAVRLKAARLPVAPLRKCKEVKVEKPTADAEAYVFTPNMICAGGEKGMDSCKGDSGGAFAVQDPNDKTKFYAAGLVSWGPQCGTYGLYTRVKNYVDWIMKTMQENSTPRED

C1s [2] = molecular target: T1, C1s; details: ref Subasinghe et al, 2004 [5]; read-out: Ki (C1s, thiopheneamidine inhibitors); cited from earlier work
C1s [3] = molecular target: T1, C1s; test: C1s inhibition IC50 assay (thioester substrate Z-Lys-SBzl with DTNB, photometric); type: biochemical; details: read-out: IC50 C1s
From the text: Recombinant C1s and C1r fragments (CCP1-CCP2-SP, the γB catalytic region) containing the serine protease domain were expressed in E. Coli BL21(DE3)pLysS host strain (transformed with pET-17b vector) in form of inclusion bodies; proteins were isolated, renatured and purified as published earlier. Recombinant C1s, isolated in intact proenzyme form, was activated by limited proteolysis using the recombinant, autoactivated C1r fragment. Activated C1s and C1r were separated using Q Sepharose HP (Amersham Biosciences, Little Chalfont, UK) anion exchange chromatography.
40 µL enzyme + 10 µL inhibitor compounds were incubated (10 min, RT), and 50 µL substrate solution (1 mM final concentration) was added; incubated for 45 min and finally absorbance was read (405 nm) with a Perkin Elmer Wallac 1420 Victor2 microplate reader.

Human isolated Factor Xa = molecular target: T2, Human isolated Factor Xa (Homo sapiens, UniProt P00742); test: Factor Xa activity assay (fluorescent substrate Boc-Leu-Gly-Arg-AMC); type: biochemical; details: for remaining activity at 10 µM: 10 µM compound
T2 construct: purchased ThermoFisher Scientific (Waltham, MA, USA)
T2 sequence (P00742 235-488 limits assumed): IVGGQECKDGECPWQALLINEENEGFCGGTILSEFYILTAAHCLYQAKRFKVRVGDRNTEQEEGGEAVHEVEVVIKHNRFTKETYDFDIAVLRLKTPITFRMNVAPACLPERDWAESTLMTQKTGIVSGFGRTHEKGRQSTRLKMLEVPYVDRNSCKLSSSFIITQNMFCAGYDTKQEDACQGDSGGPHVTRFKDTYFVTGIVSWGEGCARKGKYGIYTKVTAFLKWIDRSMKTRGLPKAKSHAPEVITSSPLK
T2 sequence (P00742 41-179 partner limits assumed): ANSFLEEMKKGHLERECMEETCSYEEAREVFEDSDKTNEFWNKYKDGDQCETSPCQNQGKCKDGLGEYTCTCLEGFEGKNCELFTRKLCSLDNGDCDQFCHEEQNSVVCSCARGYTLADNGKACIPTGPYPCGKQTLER
Method: Human isolated Factor Xa protein was purchased from ThermoFisher Scientific (Waltham, MA, USA). An end-point assay was carried out using the fluorescent amide substrate Boc-Leu-Gly-Arg-AMC used for C1s 10 µM screen; assay conditions: 20 mM HEPES (pH 7,8) 100 mM NaCl, 10 mM CaCl2 30 °C, 0.05% TWEEN-20, 1% DMSO; low enzyme concentration (about 1 nM); in a 96 well microplate format (in 100 µL), using non-binding black plates (Greiner).

[4] = 1 mM Z-Lys-SBzl, enzyme below 1 nM
[5] = 1 mM Z-Lys-SBzl, text and Figure S1
[6] = 1 mM ZLysSBzl, Figure S1 curves

| SMILES | Ki (C1s [2]) [nM] | IC50 (C1s [3]; [4]) [nM] | remaining activity at 10 µM (Human isolated Factor Xa) [%] | other results |
| --- | --- | --- | --- | --- |
| O=C(c1ccc2c(c1)OCO2)C1C2C(=O)N(c3ccc4c(c3)OCCO4)C(=O)C2C2c3ccccc3C=CN12 (stereo not drawn) [4,257,399] |  |  |  | IC50 (C1s [1]; ref PubChem, read-out: IC50 C1s): 880 nM |
| CSc1nc(-c2ccco2)nn1C(=O)c1ccco1 [7 965 558] |  |  |  | IC50 (C1s [1]; seed compounds for 2D similarity search, ref PubChem [9],[10], read-out: IC50 (seed compounds)): 4480 nM |
| COc1ccc(-c2csc(-c3cc(C(=N)N)sc3SC)n2)cc1 [CHEMBL28618] | 900 |  |  |  |
| CSc1sc(C(=N)N)cc1-c1nc(-c2cnccc2Cl)cs1 [CHEMBL28723] | 870 |  |  |  |
| CSc1sc(C(=N)N)cc1-c1nc(-c2csc3ccccc23)cs1 [CHEMBL28875] | 450 |  |  |  |
| CSc1sc(C(=N)N)cc1-c1nc(-c2ccccc2C)cs1 [CHEMBL28949] | 850 |  |  |  |
| CSc1sc(C(=N)N)cc1-c1nc(-c2ccc([N+](=O)[O-])cc2)cs1 [CHEMBL29006] | 1000 |  |  |  |
| COc1cccc(-c2csc(-c3cc(C(=N)N)sc3SC)n2)c1 [CHEMBL29205] | 470 |  |  |  |
| CSc1sc(C(=N)N)cc1-c1nc(Cc2ccccc2)cs1 [CHEMBL29269] | 1060 |  |  |  |
| CSc1sc(C(=N)N)cc1-c1nc(-c2ccc3ccccc3c2)cs1 [CHEMBL29290] | 490 |  |  |  |
| CSc1sc(C(=N)N)cc1-c1nc(-c2ccc(C)cc2)cs1 [CHEMBL29304] | 420 |  |  |  |
| CSc1sc(C(=N)N)cc1-c1nc(-c2cccs2)cs1 [CHEMBL31549] | 700 |  |  |  |
| CSc1sc(C(=N)N)cc1-c1nc(-c2cnn(-c3ccccc3)c2OCCC(C)C)cs1 [CHEMBL101698] | 1500 |  |  |  |
| CSc1sc(C(=N)N)cc1-c1nc(-c2cnn(C)c2)cs1 [CHEMBL102417] | 460 |  |  |  |
| CSc1sc(C(=N)N)cc1-c1nc(-c2cnn(-c3ccccc3)c2OCC2CCC2)cs1 [CHEMBL102835] | 530 |  |  |  |
| N=C(N)c1cc(-c2nc(-c3ccccc3)cs2)c(C(F)(F)F)s1 [CHEMBL103840] | 12500 |  |  |  |
| N=C(N)c1cc(-c2nc(-c3ccccc3)cs2)c(SCc2ccccc2)s1 [CHEMBL104368] | > 20000 |  |  |  |
| CCSc1sc(C(=N)N)cc1-c1nc(-c2ccccc2)cs1 [CHEMBL105102] | > 20000 |  |  |  |
| CS(=O)(=O)c1sc(C(=N)N)cc1-c1nc(-c2ccccc2)cs1 [CHEMBL105652] | > 28000 |  |  |  |
| Cc1sc(C(=N)N)cc1-c1nc(-c2ccccc2)cs1 [CHEMBL106071] | 6000 |  |  |  |
| CCCc1nn(C)cc1-c1csc(-c2cc(C(=N)N)sc2SC)n1 [CHEMBL106388] | 190 |  |  |  |

| SMILES | Ki (C1s [2]) [nM] | IC50 (C1s [3]; [4]) [nM] | remaining activity at 10 µM (Human isolated Factor Xa) [%] | other results |
| --- | --- | --- | --- | --- |
| CSc1sc(C(=N)N)cc1-c1nc(-c2ccccc2)cs1 [CHEMBL281899] | 560 |  |  |  |
| COc1ccccc1-c1csc(-c2cc(C(=N)N)sc2SC)n1 [CHEMBL283080] | 850 |  |  |  |
| CSc1sc(C(=N)N)cc1-c1nc(C2CCCCC2)cs1 [CHEMBL283859] | 4700 |  |  |  |
| CSc1sc(C(=N)N)cc1-c1nc(-c2ccc(Cl)cc2Cl)cs1 [CHEMBL285142] | 3000 |  |  |  |
| CSc1sc(C(=N)N)cc1-c1nc(-c2cccnc2Cl)cs1 [CHEMBL285818] | 1020 |  |  |  |
| CSc1sc(C(=N)N)cc1-c1nc(-c2ccc(Cl)cc2)cs1 [CHEMBL286243] | 436 |  |  |  |
| COc1ccc(-c2csc(-c3cc(C(=N)N)sc3SC)n2)c(OC)c1 [CHEMBL286267] | 640 |  |  |  |
| CSc1sc(C(=N)N)cc1-c1nc(-c2cccc(C)c2)cs1 [CHEMBL286498] | 960 |  |  |  |
| CSc1sc(C(=N)N)cc1-c1nc(COc2ccccc2)cs1 [CHEMBL287292] | 520 |  |  |  |
| CCCOc1c(-c2csc(-c3cc(C(=N)N)sc3SC)n2)cnn1-c1ccccn1 [CHEMBL317917] | 70 |  |  |  |
| CCCc1c(-c2csc(-c3cc(C(=N)N)sc3SC)n2)cnn1C [CHEMBL318576] | 330 |  |  |  |
| CCOc1c(-c2csc(-c3cc(C(=N)N)sc3SC)n2)cnn1-c1ccccc1 [CHEMBL321341] | 90 |  |  |  |
| N=C(N)c1cc(-c2nc(-c3ccccc3)cs2)cs1 [CHEMBL321519] | > 20000 |  |  |  |
| COc1sc(C(=N)N)cc1-c1nc(-c2ccccc2)cs1 [CHEMBL322207] | 14400 |  |  |  |
| CSc1sc(C(=N)N)cc1-c1ncc(-c2ccccc2)s1 [CHEMBL322672] | 3250 |  |  |  |
| CSc1sc(C(=N)N)cc1-c1nc(-c2cnn(-c3ccccc3)c2)cs1 [CHEMBL322834] | 150 |  |  |  |
| CSc1sc(C(=N)N)cc1-c1nc(-c2ccc(Cl)c([N+](=O)[O-])c2)cs1 [CHEMBL413764] | 860 |  |  |  |
| CSc1sc(C(=N)N)cc1-c1nc(-c2ccc(-c3ccccc3)cc2)cs1 [CHEMBL418023] | 15400 |  |  |  |
| CCc1sc(C(=N)N)cc1-c1nc(-c2ccccc2)cs1 [CHEMBL441273] | 3000 |  |  |  |
| CCOc1ccc(C(=O)n2nnc3ccccc32)cc1 [Entry 1] |  | 83 | 30.3 | IC50 (C1s [3]; [5]): 83.3 nM |
| CC(=O)Nc1ccc(C(=O)n2nnc3ccccc32)cc1 [Entry 2] |  | 91 | 43.1 | IC50 (C1s [3]; [5]): 90.8 nM |

| SMILES | Ki (C1s [2]) [nM] | IC50 (C1s [3]; [4]) [nM] | remaining activity at 10 µM (Human isolated Factor Xa) [%] | other results |
| --- | --- | --- | --- | --- |
| COc1cc(SC)ccc1C(=O)n1nnc2ccccc21 [Entry 3] |  | 240 | 4.93 |  |
| CC(C)(C)c1ccc(C(=O)n2nnc3ccccc32)cc1 [Entry 4] |  | 1300 | 86.2 |  |
| COc1ccc(C(=O)n2nnc3ccccc32)cc1OC [Entry 5] |  | 1850 | 48.3 |  |
| O=C(c1ccc(F)c(F)c1)n1nnc2ccccc21 [Entry 6] |  | 2160 | 92.3 |  |
| O=C(c1ccc(-c2ccccc2)cc1)n1nnc2ccccc21 [Entry 7] |  | 3870 | 92.1 |  |
| CCN(CC)c1ccc(C(=O)n2nnc3ccccc32)cc1 [Entry 8] |  | 5900 | 76.5 |  |
| COc1ccccc1C(=O)n1nc(-c2ccco2)nc1SC [Entry 9] |  | 12 | 2.39 | IC50 (C1s [3]; [5]): 11.6 nM; IC50 (Human isolated Factor Xa; 500 µM Boc-Leu-Gly-Arg-AMC): 1250 nM |
| CSc1nc(-c2ccco2)nn1C(=O)c1ccc(F)cc1 [Entry 10] |  | 44 | 78.1 | IC50 (C1s [3]; [5]): 43.6 nM |
| CSc1nc(-c2ccco2)nn1C(=O)c1ccccc1 [Entry 11] |  | 94 | 26 | IC50 (C1s [3]; [5]): 93.6 nM |
| CCOC(=O)CSc1nc(-c2cccnc2)nn1C(=O)c1ccccc1 [Entry 12] |  | 2400 | 85.4 |  |
| O=c1oc(-c2ccco2)nc2cc(Cl)ccc12 [Entry 13] |  | 474 | 98.6 |  |
| COc1cc2nc(-c3ccco3)oc(=O)c2cc1OC [Entry 14] |  | 6440 | 61.4 |  |
| O=c1oc(-c2ccco2)nc2ccc(Cl)cc12 [Entry 15] |  | 6700 | 82 | IC50 (C1s [3]; [6]): 6680 nM |
| CC(=O)Oc1ccc2nc(-c3ccco3)oc(=O)c2c1 [Entry 16] |  | 29000 | 77.6 |  |
| Cc1sc2nc(-c3ccco3)oc(=O)c2c1C [Entry 17] |  | 549 | 100 | C1s inhibitory activity as reported in ChEMBL and PubChem (in words) (C1s [1]; ref [9]): inactive |
| Cc1cc2c(=O)oc(-c3ccccc3Br)nc2s1 [Entry 18] |  | 845 | 46.1 | IC50 (C1s [3]; [6]): 846 nM |
| Cc1sc2nc(-c3ccccc3)oc(=O)c2c1C [Entry 19] |  | ~20000 |  |  |
| Cc1ccc(-c2nc3sc(C)c(C)c3c(=O)o2)cc1 [Entry 20] |  | ~50000 |  |  |
| O=c1nc(-c2cccs2)oc2cc(Cl)ccc12 [Entry 21] |  | 241 | 53.6 | IC50 (C1s [3]; [6]): 240 nM |
| O=c1nc(-c2ccco2)oc2ccc(Cl)cc12 [Entry 22] |  | 3600 | 0.14 |  |
| Cc1cccc2c(=O)nc(-c3ccco3)oc12 [Entry 23] |  | 41000 |  |  |
